According to patent publication US20240239861A1, “GLUCAGON-RECEPTOR SELECTIVE POLYPEPTIDES AND METHODS OF USE THEREOF” (i2O Therapeutics, Inc., priority 2016, published 2024):
Like-named read-outs stand apart in the source and are kept apart here. Where a SMILES comes first, the peptide text is derived from it. [ ]: non-standard residue; d: D form. Aib = CC(C)(N)C(=O)O

Key:
in vivo = conditions: male, rat
human GCGR = human GCGR (Homo sapiens, UniProt P47871); test: Peptide-receptor mediated cAMP accumulation (LANCE Ultra cAMP) in CHO-K1 cells transfected with human GCGR; assay type: cell-based
human GLP-1R = human GLP-1R (Homo sapiens, UniProt P43220); test: Peptide-receptor mediated cAMP accumulation (LANCE Ultra cAMP) in CHO-K1 cells transfected with human GLP-1R; assay type: cell-based
[1] = Solubility in water or saline at room temperature, visual inspection; assay type: physicochemical; conditions: Solubility in water mg/ml
Description: Samples were visually inspected for clarity of the sample, any appearance of turbidity or haziness.

[2] = Clearance following intravenous infusion, acylated peptides (1-hour infusion, 0.033 mg/kg); conditions: rat, in vivo
[3] = hGLP1 pEC50 (cAMP mean (n = 3): 11 point curve starting at 1 nM, Table 3)
[4] = read-out: GluR pEC50 (converted)
[5] = Table 7, GLP-1R, read-out: GLP-1R pEC50 (converted)

Sequence of human GLP-1R (P43220 24-463): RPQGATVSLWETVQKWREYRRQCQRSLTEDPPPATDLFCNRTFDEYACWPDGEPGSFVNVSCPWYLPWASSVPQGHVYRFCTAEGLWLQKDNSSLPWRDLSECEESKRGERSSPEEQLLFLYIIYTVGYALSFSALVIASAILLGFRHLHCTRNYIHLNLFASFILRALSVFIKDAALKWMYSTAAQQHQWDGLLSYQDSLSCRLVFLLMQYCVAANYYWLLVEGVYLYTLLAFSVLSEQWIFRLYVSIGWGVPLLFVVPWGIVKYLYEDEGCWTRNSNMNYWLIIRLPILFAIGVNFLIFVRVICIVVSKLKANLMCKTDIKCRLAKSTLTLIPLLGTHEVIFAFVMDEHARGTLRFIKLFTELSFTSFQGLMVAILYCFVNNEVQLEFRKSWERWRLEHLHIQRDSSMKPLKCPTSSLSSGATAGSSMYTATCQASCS
Sequence of human GCGR (P47871 26-477): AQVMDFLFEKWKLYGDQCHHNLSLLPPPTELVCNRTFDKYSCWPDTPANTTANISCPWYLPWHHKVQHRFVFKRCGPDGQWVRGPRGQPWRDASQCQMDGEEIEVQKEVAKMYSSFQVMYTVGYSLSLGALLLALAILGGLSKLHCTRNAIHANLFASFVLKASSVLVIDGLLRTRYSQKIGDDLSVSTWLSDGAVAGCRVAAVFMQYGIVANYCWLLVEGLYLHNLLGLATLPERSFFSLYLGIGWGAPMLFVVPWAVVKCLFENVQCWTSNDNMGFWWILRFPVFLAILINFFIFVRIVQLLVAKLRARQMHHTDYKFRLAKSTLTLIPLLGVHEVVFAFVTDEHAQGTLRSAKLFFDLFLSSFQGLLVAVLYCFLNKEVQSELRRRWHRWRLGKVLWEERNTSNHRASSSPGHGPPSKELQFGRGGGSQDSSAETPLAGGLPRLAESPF

clearance (in vivo) [mL/min/kg]	EC50 (human GCGR; Table 3) [nM]	EC50 (human GLP-1R; [3]) [nM]	SMILES	other results
29.4	0.00398	> 1	CC(C)C[C@H](NC(=O)[C@H](Cc1ccc(O)cc1)NC(=O)[C@H](CCCCN)NC(=O)[C@H](CO)NC(=O)[C@H](Cc1ccc(O)cc1)NC(=O)[C@H](CC(=O)O)NC(=O)[C@H](CO)NC(=O)[C@@H](NC(=O)[C@H](Cc1ccccc1)NC(=O)[C@@H](NC(=O)CNC(=O)[C@H](Cc1c[nH]cn1)NC(=O)[C@H](CO)NC(=O)[C@@H](N)Cc1ccc(O)cc1)[C@@H](C)O)[C@@H](C)O)C(=O)N[C@@H](CC(=O)O)C(=O)N[C@@H](CO)C(=O)N[C@@H](C)C(=O)N[C@@H](CCCNC(=N)N)C(=O)N[C@@H](C)C(=O)N[C@@H](CCC(N)=O)C(=O)N[C@@H](CCC(=O)O)C(=O)N[C@@H](Cc1ccccc1)C(=O)N[C@H](C(=O)N[C@@H](CCCCN)C(=O)N[C@@H](Cc1c[nH]c2ccccc12)C(=O)N[C@@H](CC(C)C)C(=O)N[C@@H](CCC(=O)O)C(=O)N[C@@H](CC(=O)O)C(=O)N[C@@H](CCC(=O)O)C(=O)N1CCC[C@H]1C(=O)N[C@@H](CO)C(=O)N[C@@H](CO)C(=O)NCC(=O)N[C@@H](CCCCN)C(=O)N1CCC[C@H]1C(=O)N1CCC[C@H]1C(=O)N1CCC[C@H]1C(=O)N[C@@H](CO)C(=O)O)C(C)C [Compound A61] (H-YSHGTFTSDYSKYLDSARAQEFVKWLEDEPSSGKPPPS-OH; N-terminus assumed)	
20.9	0.001	> 1	CC(C)C[C@H](NC(=O)[C@H](Cc1ccc(O)cc1)NC(=O)[C@H](CCCCN)NC(=O)[C@H](CO)NC(=O)[C@H](Cc1ccc(O)cc1)NC(=O)[C@H](CC(=O)O)NC(=O)[C@H](CO)NC(=O)[C@@H](NC(=O)[C@H](Cc1ccccc1)NC(=O)[C@@H](NC(=O)CNC(=O)[C@H](Cc1c[nH]cn1)NC(=O)[C@H](CO)NC(=O)[C@@H](N)Cc1ccc(O)cc1)[C@@H](C)O)[C@@H](C)O)C(=O)N[C@@H](CC(=O)O)C(=O)N[C@@H](CO)C(=O)N[C@@H](C)C(=O)N[C@@H](CCCNC(=N)N)C(=O)N[C@@H](C)C(=O)N[C@@H](CCC(N)=O)C(=O)N[C@@H](CCC(=O)O)C(=O)N[C@@H](Cc1ccccc1)C(=O)N[C@H](C(=O)N[C@@H](CCCCN)C(=O)N[C@@H](Cc1c[nH]c2ccccc12)C(=O)N[C@@H](CC(C)C)C(=O)N[C@@H](CCC(=O)O)C(=O)N[C@@H](CC(=O)O)C(=O)N[C@@H](CCC(=O)O)C(=O)N1CCC[C@H]1C(=O)N[C@@H](CCCCN)C(=O)N[C@@H](CO)C(=O)N[C@@H](CCCCN)C(=O)N[C@@H](CO)C(=O)N1CCC[C@H]1C(=O)N1CCC[C@H]1C(=O)N1CCC[C@H]1C(=O)N[C@@H](CO)C(=O)O)C(C)C [Compound A70] (H-YSHGTFTSDYSKYLDSARAQEFVKWLEDEPKSKSPPPS-OH; N-terminus assumed)	
23	0.002	> 1	CC(C)C[C@H](NC(=O)[C@H](Cc1ccc(O)cc1)NC(=O)[C@H](CCCCN)NC(=O)[C@H](CO)NC(=O)[C@H](Cc1ccc(O)cc1)NC(=O)[C@H](CC(=O)O)NC(=O)[C@H](CO)NC(=O)[C@@H](NC(=O)[C@H](Cc1ccccc1)NC(=O)[C@@H](NC(=O)CNC(=O)[C@H](Cc1c[nH]cn1)NC(=O)[C@H](CO)NC(=O)[C@@H](N)Cc1ccc(O)cc1)[C@@H](C)O)[C@@H](C)O)C(=O)N[C@@H](CC(=O)O)C(=O)N[C@@H](CO)C(=O)N[C@@H](C)C(=O)N[C@@H](CCCNC(=N)N)C(=O)N[C@@H](C)C(=O)N[C@@H](CCC(N)=O)C(=O)N[C@@H](CCC(=O)O)C(=O)N[C@@H](Cc1ccccc1)C(=O)N[C@H](C(=O)N[C@@H](CCCCN)C(=O)N[C@@H](Cc1c[nH]c2ccccc12)C(=O)N[C@@H](CC(C)C)C(=O)N[C@@H](CCC(=O)O)C(=O)N[C@@H](CC(=O)O)C(=O)N[C@@H](CCC(=O)O)C(=O)N1CCC[C@H]1C(=O)N[C@@H](CCCCN)C(=O)N[C@@H](CO)C(=O)N[C@@H](CCCCN)C(=O)N[C@@H](CO)C(=O)N1CCC[C@H]1C(=O)N1CCC[C@H]1C(=O)N1CCC[C@H]1C(=O)N[C@@H](CO)C(N)=O)C(C)C [Compound A73] (H-YSHGTFTSDYSKYLDSARAQEFVKWLEDEPKSKSPPPS-NH2; N-terminus assumed)	
			CCCCCCCCCCCCCCCC(=O)N[C@@H](CCC(=O)NCCCC[C@H](NC(=O)[C@H](CC(=O)O)NC(=O)[C@H](CC(C)C)NC(=O)[C@H](Cc1ccc(O)cc1)NC(=O)[C@H](CCCCN)NC(=O)[C@H](CO)NC(=O)[C@H](Cc1ccc(O)cc1)NC(=O)[C@H](CC(=O)O)NC(=O)[C@H](CO)NC(=O)[C@@H](NC(=O)[C@H](Cc1ccccc1)NC(=O)[C@@H](NC(=O)CNC(=O)[C@H](Cc1c[nH]cn1)NC(=O)[C@H](CO)NC(=O)[C@@H](N)Cc1ccc(O)cc1)[C@@H](C)O)[C@@H](C)O)C(=O)N[C@@H](CCCCN)C(=O)N[C@@H](Cc1ccc(O)cc1)C(=O)N[C@@H](C)C(=O)N[C@@H](CCC(N)=O)C(=O)N[C@@H](CCC(=O)O)C(=O)N[C@@H](Cc1ccccc1)C(=O)N[C@H](C(=O)NC(C)(C)C(=O)N[C@@H](Cc1c[nH]c2ccccc12)C(=O)N[C@@H](CC(C)C)C(=O)N[C@@H](CCC(=O)O)C(=O)N[C@@H](CC(=O)O)C(=O)N[C@@H](CCC(=O)O)C(=O)N1CCC[C@H]1C(=O)N[C@@H](CO)C(=O)N[C@@H](CO)C(=O)NCC(=O)N[C@@H](C)C(=O)N1CCC[C@H]1C(=O)N1CCC[C@H]1C(=O)N1CCC[C@H]1C(=O)N[C@@H](CO)C(=O)O)C(C)C)C(=O)O [Compound B3]	clearance [2]: 18.8 mL/min/kg; half-life [2]: 1.79 h; EC50 (human GCGR; [4]): 0.00398 nM; EC50 (human GLP-1R; [5]): > 1000 nM
			CCCCCCCCCCCCCCCC(=O)N[C@@H](CCC(=O)NCCCC[C@H](NC(=O)[C@H](CO)NC(=O)[C@H](CO)NC(=O)[C@@H]1CCCN1C(=O)[C@H](CCC(=O)O)NC(=O)[C@H](CC(=O)O)NC(=O)[C@H](CCC(=O)O)NC(=O)[C@H](CC(C)C)NC(=O)[C@H](Cc1c[nH]c2ccccc12)NC(=O)C(C)(C)NC(=O)[C@@H](NC(=O)[C@H](Cc1ccccc1)NC(=O)[C@H](CCC(=O)O)NC(=O)[C@H](CCC(N)=O)NC(=O)[C@H](C)NC(=O)[C@H](CO)NC(=O)[C@H](CCCCN)NC(=O)C(C)(C)NC(=O)[C@H](CC(=O)O)NC(=O)[C@H](CC(C)C)NC(=O)[C@H](Cc1ccc(O)cc1)NC(=O)[C@H](CCCCN)NC(=O)[C@H](CO)NC(=O)[C@H](Cc1ccc(O)cc1)NC(=O)[C@H](CC(=O)O)NC(=O)[C@H](CO)NC(=O)[C@@H](NC(=O)[C@H](Cc1ccccc1)NC(=O)[C@@H](NC(=O)CNC(=O)[C@H](Cc1c[nH]cn1)NC(=O)[C@H](CO)NC(=O)[C@@H](N)Cc1ccc(O)cc1)[C@@H](C)O)[C@@H](C)O)C(C)C)C(=O)N[C@@H](C)C(=O)N1CCC[C@H]1C(=O)N1CCC[C@H]1C(=O)N1CCC[C@H]1C(=O)N[C@@H](CO)C(=O)O)C(=O)O [Compound B9]	clearance [2]: 0.594 mL/min/kg; half-life [2]: 4.98 h; EC50 (human GCGR; [4]): 0.00794 nM; EC50 (human GLP-1R; [5]): > 1000 nM

SMILES	clearance (in vivo) [mL/min/kg]	EC50 (human GCGR; Table 3) [nM]	EC50 (human GLP-1R; [3]) [nM]	other results
CC(C)C[C@H](NC(=O)[C@H](Cc1ccc(O)cc1)NC(=O)[C@H](CCCCN)NC(=O)[C@H](CO)NC(=O)[C@H](Cc1ccc(O)cc1)NC(=O)[C@H](CC(=O)O)NC(=O)[C@H](CO)NC(=O)[C@@H](NC(=O)[C@H](Cc1ccccc1)NC(=O)[C@@H](NC(=O)CNC(=O)[C@H](Cc1c[nH]cn1)NC(=O)[C@H](CO)NC(=O)[C@@H](N)Cc1ccc(O)cc1)[C@@H](C)O)[C@@H](C)O)C(=O)N[C@@H](CC(=O)O)C(=O)N[C@@H](CCC(N)=O)C(=O)N[C@@H](C)C(=O)N[C@@H](CCCNC(=N)N)C(=O)N[C@@H](C)C(=O)N[C@@H](CCC(N)=O)C(=O)N[C@@H](CCC(=O)O)C(=O)N[C@@H](Cc1ccccc1)C(=O)N[C@H](C(=O)N[C@@H](CCCCN)C(=O)N[C@@H](Cc1c[nH]c2ccccc12)C(=O)N[C@@H](CC(C)C)C(=O)N[C@@H](CCC(=O)O)C(=O)N[C@@H](CC(=O)O)C(=O)N[C@@H](CCC(=O)O)C(=O)N1CCC[C@H]1C(=O)N[C@@H](CO)C(=O)N[C@@H](CO)C(=O)NCC(=O)N[C@@H](C)C(=O)N1CCC[C@H]1C(=O)N1CCC[C@H]1C(=O)N1CCC[C@H]1C(=O)N[C@@H](CO)C(=O)O)C(C)C [Compound A44] (H-YSHGTFTSDYSKYLDQARAQEFVKWLEDEPSSGAPPPS-OH; N-terminus assumed)	23.9	0.00126	> 1	
CC(C)C[C@H](NC(=O)[C@H](Cc1ccc(O)cc1)NC(=O)[C@H](CCCCN)NC(=O)[C@H](CO)NC(=O)[C@H](Cc1ccc(O)cc1)NC(=O)[C@H](CC(=O)O)NC(=O)[C@H](CO)NC(=O)[C@@H](NC(=O)[C@H](Cc1ccccc1)NC(=O)[C@@H](NC(=O)CNC(=O)[C@H](Cc1c[nH]cn1)NC(=O)[C@H](CO)NC(=O)[C@@H](N)Cc1ccc(O)cc1)[C@@H](C)O)[C@@H](C)O)C(=O)N[C@@H](CC(=O)O)C(=O)NC(C)(C)C(=O)N[C@@H](C)C(=O)N[C@@H](CCCNC(=N)N)C(=O)N[C@@H](C)C(=O)N[C@@H](CCC(N)=O)C(=O)N[C@@H](CCC(=O)O)C(=O)N[C@@H](Cc1ccccc1)C(=O)N[C@H](C(=O)NC(C)(C)C(=O)N[C@@H](Cc1c[nH]c2ccccc12)C(=O)N[C@@H](CC(C)C)C(=O)N[C@@H](CCC(=O)O)C(=O)N[C@@H](CC(=O)O)C(=O)N[C@@H](CCC(=O)O)C(=O)N1CCC[C@H]1C(=O)N[C@@H](CO)C(=O)N[C@@H](CO)C(=O)NCC(=O)N[C@@H](C)C(=O)N1CCC[C@H]1C(=O)N1CCC[C@H]1C(=O)N1CCC[C@H]1C(=O)N[C@@H](CO)C(=O)O)C(C)C [Compound A103] (H-YSHGTFTSDYSKYLD[Aib]ARAQEFV[Aib]WLEDEPSSGAPPPS-OH; N-terminus assumed)	28.5		> 1	EC50 (human GCGR; Table 2B): 0.00126 nM; hGCGR pEC50 (cAMP mean (n = 3): 11 point curve starting at 1 nM) (human GCGR; Table 3): 11.9; solubility [1]: > 200 mg/mL; EC50 (human GLP-1R; hGLP1 pEC50 (cAMP) mean (n = 3): 11 point curve starting at 1 nM, Table 2B): > 1 nM
